According to paper PMC9573696, “Experimental Examination of Solubility and Lipophilicity as Pharmaceutically Relevant Points of Novel Bioactive Hybrid Compounds” (Molecules, 2022):
≈ marks a conversion by molar mass, not a printed value. Marks after values point to notes of the source that are not given here. One block for each molecule: values may come before it.

Assay: Equilibrium (thermodynamic) solubility, shake-flask method
Assay type: physicochemical
Conditions: for Solubility S × 10^3 / Solubility x × 10^4 / Solubility x × 10^5 / Solubility S × 10^4 / Solubility x × 10^6 / Solubility S × 10^2 / Solubility x × 10^3 / Solubility S × 10^5: amorphous state; for solubility at 2 days: 25 °C, organic solvent or mixture, thermodynamic from solid, 1-octanol, text values match 298.15 K, read-out: Solubility S in the alcohol (1-octanol)
Description: The experimental solubility values of hybrids in the selected solvents within the temperature range of 293.15–313.15 K expressed in molarity are summarized in Table 2. The comparative analysis of the reference values of the solubility of compounds I–III at the standard temperature of 298.15 K is given as a histogram in Figure 3.
Shake-flask method as “gold standard” was used for determination thermodynamic solubility synthesized compounds in buffer solutions (pH 2.0 and 7.4) and 1-octanol in the temperature range of 293.15–313.15 K with a step of 5 degrees at atmospheric pressure. Excessive amounts of compound were added to glass vials c 12 mL of selected solvent. The heterogeneous system is closed with a lid and vigorously stirred at the selected temperature in an air thermostat with a stirring device until the solubility equilibrium has been reached. The time required for establishing a constant value of the solution concentration was determined from the solubility kinetic dependences and averaged 2 days. The equilibrated solutions were first survived to aim sedimentation of solid phase during 10 h, then centrifuged at 20,000 rpm for 30 min at specific temperatures, and then quickly filtered using a syringe equipped with a hydrophilic filter Millex-GV 0.22 µm (Ireland). Concentration of saturated solution was measured using spectrophotometer Cary-50 (Varian, USA) with an accuracy of 2–4%. The absorbances of compounds studied were measured at wavelengths 332 and 334 nm in buffer solutions and 1-octanol, respectively. If necessary, an aliquot was diluted with an appropriate solvent. The final pH of the saturated buffers was monitored. The solubility of compounds in each solvent was determined by repeating the procedure three times.
Mole fraction concentration was calculated from solubility value S expressed in mol∙L^−1 using Equation (10):(10) x=M2S/S(M2−M1)+1000ρ, where M1 and M2 are the molar masses of solute and solvent, respectively, and ρ (g∙cm^−3) is the density of the pure solvents. The mole fraction solubilities for buffer solutions were calculated taking into account the buffer compositions. The used values of densities are given in Table S6 in Supplementary Material.

- Solubility S × 10^3 (1-Octanol, 293.15 K): 5.3994 mol∙L^−1 (printed as S × 10^3)
- Solubility x × 10^4 (1-Octanol, 293.15 K): 8.5358 mol. frac. (printed as x × 10^
- Solubility S × 10^3 (1-Octanol, 298.15 K): 5.6703 mol∙L^−1 (printed as S × 10^3)
- Solubility x × 10^4 (1-Octanol, 298.15 K): 9.0027 mol. frac. (printed as x × 10^
- Solubility S × 10^3 (1-Octanol, 303.15 K): 5.8834 mol∙L^−1 (printed as S × 10^3)
- Solubility x × 10^4 (1-Octanol, 303.15 K): 9.3813 mol. frac. (printed as x × 10^
- Solubility S × 10^3 (1-Octanol, 308.15 K): 6.1187 mol∙L^−1 (printed as S × 10^3)
- Solubility x × 10^4 (1-Octanol, 308.15 K): 9.8001 mol. frac. (printed as x × 10^
- Solubility S × 10^3 (1-Octanol, 313.15 K): 6.3807 mol∙L^−1 (printed as S × 10^3)
- Solubility x × 10^4 (1-Octanol, 313.15 K): 10.2644 mol. frac. (printed as x × 10^
- solubility at 2 days: 5.67 mM (≈ 3640 µg/mL)
- Solubility S × 10^3 (Buffer pH 2.0, 293.15 K): 1.0755 mol∙L^−1 (printed as S × 10^3)
- Solubility x × 10^5 (Buffer pH 2.0, 293.15 K): 1.9402 mol. frac. (printed as x × 10^
- Solubility S × 10^3 (Buffer pH 2.0, 298.15 K): 1.2330 mol∙L^−1 (printed as S × 10^3)
- Solubility x × 10^5 (Buffer pH 2.0, 298.15 K): 2.2272 mol. frac. (printed as x × 10^
- Solubility S × 10^3 (Buffer pH 2.0, 303.15 K): 1.4273 mol∙L^−1 (printed as S × 10^3)
- Solubility x × 10^5 (Buffer pH 2.0, 303.15 K): 2.5822 mol. frac. (printed as x × 10^
- Solubility S × 10^3 (Buffer pH 2.0, 308.15 K): 1.6250 mol∙L^−1 (printed as S × 10^3)
- Solubility x × 10^5 (Buffer pH 2.0, 308.15 K): 2.9451 mol. frac. (printed as x × 10^
- Solubility S × 10^3 (Buffer pH 2.0, 313.15 K): 1.8394 mol∙L^−1 (printed as S × 10^3)
- Solubility x × 10^5 (Buffer pH 2.0, 313.15 K): 3.3404 mol. frac. (printed as x × 10^
- Solubility S × 10^4 (Buffer pH 7.4, 293.15 K): 3.0126 mol∙L^−1 (printed as S × 10^4)
- Solubility x × 10^6 (Buffer pH 7.4, 293.15 K): 5.4794 mol. frac. (printed as x × 10^
- Solubility S × 10^4 (Buffer pH 7.4, 298.15 K): 3.1917 mol∙L^−1 (printed as S × 10^4)
- Solubility x × 10^6 (Buffer pH 7.4, 298.15 K): 5.8122 mol. frac. (printed as x × 10^
- Solubility S × 10^4 (Buffer pH 7.4, 303.15 K): 3.3788 mol∙L^−1 (printed as S × 10^4)
- Solubility x × 10^6 (Buffer pH 7.4, 303.15 K): 6.1623 mol. frac. (printed as x × 10^
- Solubility S × 10^4 (Buffer pH 7.4, 308.15 K): 3.5539 mol∙L^−1 (printed as S × 10^4)
- Solubility x × 10^6 (Buffer pH 7.4, 308.15 K): 6.4929 mol. frac. (printed as x × 10^
- Solubility S × 10^4 (Buffer pH 7.4, 313.15 K): 3.7469 mol∙L^−1 (printed as S × 10^4)
- Solubility x × 10^6 (Buffer pH 7.4, 313.15 K): 6.8581 mol. frac. (printed as x × 10^
SMILES: O=c1c2sc(=S)n(-c3ccc(F)cc3)c2ncn1CCCN1CCN(CC(O)(Cn2cncn2)c2ccc(F)cc2F)CC1 (centres unmarked) [II, 6-[3-[4-[2-(2,4-difluorophenyl)-2-hydroxy-3-(1H-1,2,4-triazol-1-yl)propyl]-1-piperazinyl]propyl]-2,3-dihydro-3-(4-fluorophenyl)-2-thioxo-thiazolo[4,5-d]pyrimidin-7(6H)-one]

- Solubility S × 10^2 (1-Octanol, 293.15 K): 1.1196 mol∙L^−1 (printed as S × 10^2)
- Solubility x × 10^3 (1-Octanol, 293.15 K): 1.7767 mol. frac. (printed as x × 10^
- Solubility S × 10^2 (1-Octanol, 298.15 K): 1.2269 mol∙L^−1 (printed as S × 10^2)
- Solubility x × 10^3 (1-Octanol, 298.15 K): 1.9566 mol. frac. (printed as x × 10^
- Solubility S × 10^2 (1-Octanol, 303.15 K): 1.3464 mol∙L^−1 (printed as S × 10^2)
- Solubility x × 10^3 (1-Octanol, 303.15 K): 2.1577 mol. frac. (printed as x × 10^
- Solubility S × 10^2 (1-Octanol, 308.15 K): 1.4730 mol∙L^−1 (printed as S × 10^2)
- Solubility x × 10^3 (1-Octanol, 308.15 K): 2.3729 mol. frac. (printed as x × 10^
- Solubility S × 10^2 (1-Octanol, 313.15 K): 1.6045 mol∙L^−1 (printed as S × 10^2)
- Solubility x × 10^3 (1-Octanol, 313.15 K): 2.5979 mol. frac. (printed as x × 10^
- solubility at 2 days: 12.3 mM (≈ 8110 µg/mL)
- Solubility S × 10^4 (Buffer pH 2.0, 293.15 K): 6.3622 mol∙L^−1 (printed as S × 10^4)
- Solubility x × 10^5 (Buffer pH 2.0, 293.15 K): 1.1474 mol. frac. (printed as x × 10^
- Solubility S × 10^4 (Buffer pH 2.0, 298.15 K): 6.7826 mol∙L^−1 (printed as S × 10^4)
- Solubility x × 10^5 (Buffer pH 2.0, 298.15 K): 1.2247 mol. frac. (printed as x × 10^
- Solubility S × 10^4 (Buffer pH 2.0, 303.15 K): 7.1958 mol∙L^−1 (printed as S × 10^4)
- Solubility x × 10^5 (Buffer pH 2.0, 303.15 K): 1.3013 mol. frac. (printed as x × 10^
- Solubility S × 10^4 (Buffer pH 2.0, 308.15 K): 7.5805 mol∙L^−1 (printed as S × 10^4)
- Solubility x × 10^5 (Buffer pH 2.0, 308.15 K): 1.3731 mol. frac. (printed as x × 10^
- Solubility S × 10^4 (Buffer pH 2.0, 313.15 K): 7.9724 mol∙L^−1 (printed as S × 10^4)
- Solubility x × 10^5 (Buffer pH 2.0, 313.15 K): 1.4468 mol. frac. (printed as x × 10^
- Solubility S × 10^5 (Buffer pH 7.4, 293.15 K): 5.8572 mol∙L^−1 (printed as S × 10^5)
- Solubility x × 10^6 (Buffer pH 7.4, 293.15 K): 1.0651 mol. frac. (printed as x × 10^
- Solubility S × 10^5 (Buffer pH 7.4, 298.15 K): 6.7347 mol∙L^−1 (printed as S × 10^5)
- Solubility x × 10^6 (Buffer pH 7.4, 298.15 K): 1.2262 mol. frac. (printed as x × 10^
- Solubility S × 10^5 (Buffer pH 7.4, 303.15 K): 7.7877 mol∙L^−1 (printed as S × 10^5)
- Solubility x × 10^6 (Buffer pH 7.4, 303.15 K): 1.4201 mol. frac. (printed as x × 10^
- Solubility S × 10^5 (Buffer pH 7.4, 308.15 K): 8.9503 mol∙L^−1 (printed as S × 10^5)
- Solubility x × 10^6 (Buffer pH 7.4, 308.15 K): 1.6349 mol. frac. (printed as x × 10^
- Solubility S × 10^5 (Buffer pH 7.4, 313.15 K): 10.2665 mol∙L^−1 (printed as S × 10^5)
- Solubility x × 10^6 (Buffer pH 7.4, 313.15 K): 1.8788 mol. frac. (printed as x × 10^
SMILES: O=c1c2sc(=S)n(-c3ccc(Cl)cc3)c2ncn1CCCN1CCN(CC(O)(Cn2cncn2)c2ccc(F)cc2F)CC1 (centres unmarked) [III, 6-[3-[4-[2-(2,4-difluorophenyl)-2-hydroxy-3-(1H-1,2,4-triazol-1-yl)propyl]-1-piperazinyl]propyl]-2,3-dihydro-3-(4-chlorophenyl)-2-thioxo-thiazolo[4,5-d]pyrimidin-7(6H)-one]
